# Values of other authors, collected in patent US7084135B1, “Prenyl transferase inhibitors” (Societe de Conseils de Recherches et d'Applications …, priority 1998, dated 2006).
# Experiments:
# HT29, adenocarcinoma = settings: Colon: HT29, adenocarcinoma with Wild Type ras (WT)
# DU145 adenocarcinoma = settings: Prostate: DU145 adenocarcinoma, with WT ras
compound,measurement,setting,value
CC[C@H](C)[C@@H](COC(Cc1ccccc1)C(=O)N[C@@H](CCS(C)(=O)=O)C(=O)OC(C)C)NC[C@@H](N)CS (some centres unmarked) [Compound L744-832],sensitivity of cell line to L744-832,"HT29, adenocarcinoma",sensitive
same,sensitivity of cell line to L744-832,DU145 adenocarcinoma,resistant
